Experimental data taken from patent publication USRE47428E1, “Modulators of methyl modifying enzymes, compositions and uses thereof” (Constellation Pharmaceuticals, Inc., priority 2013, dated 2019).
Read-outs that look alike come from different tables or passages of the source.

Legend:
Y641N EZH2 = Y641N EZH2 (Homo sapiens, UniProt Q15910, Y641N); experiment: Y641N EZH2 assay, H3K27Me2 oligonucleosomes as substrate; type: biochemical
Procedure: (§1) Assays were carried out by mixing rPRC2 together with biotinylated oligonucleosome substrates in the presence of the radio-labeled enzyme co-factor, S-adenosyl-L-methionine (^3H SAM) (Perkin Elmer) and monitoring the enzymatically mediated transfer of tritiated methyl groups from ^3H SAM to histone lysine residues. The amount of resulting tritiated methyl histone product was measured by first capturing the biotinylated oligonucleosomes in streptavidin (SAV) coated FlashPlates (Perkin Elmer), followed by a wash step to remove un-reacted ^3H SAM, and then counting on a TopCount NXT 384 well plate scintillation counter (Perkin Elmer). The final assay conditions for EZH2 were as follows: 50 mM Tris Buffer pH 8.5, 1 mM DTT, 69 μM Brij-35 detergent, 5.0 mM MgCl2, 0.1 mg/mL BSA, 0.2 μM ^3H SAM, 0.2 μM biotinylated oligonucleosomes, 3.6 μM H3K27me3 peptide and 2 nM EZH2.
(§2) A 12.5 μL volume of the HMT enzyme, H3K27me3 peptide and oligonucleosome substrate in assay buffer was added to each well of the assay plate using a Multidrop Combi (Thermo-Fisher). Compounds were pre-incubated with the enzyme for 20 min, followed by initiation of the methyltransferase reaction by addition of 12.5 μL of ^3H SAM in assay buffer (final volume=25 μL). The final concentrations of compounds ranged from a top default concentration of 80 μM down to 0.16 μM in ten 2-fold dilution steps. Reactions were carried out for 60 minutes and quenched with 20 μL per well of 1.96 mM SAH, 50 mM Tris pH 8.5, 200 mM EDTA. Stopped reactions were transferred to SAV coated Flash-plates (Perkin Elmer), incubated for 120 min, washed with a plate washer, and then read on the TopCount NXT (1.0 min/well) to measure the amount of methyl histone product formed during the reaction.

EZH2 = EZH2 (Homo sapiens, UniProt Q15910); experiment: EZH2 assay: rPRC2 methyltransferase, 3H SAM FlashPlate; type: biochemical; settings: 0.2 μM 3H SAM, 2 nM EZH2
EZH2, sequence (Q15910 whole entry): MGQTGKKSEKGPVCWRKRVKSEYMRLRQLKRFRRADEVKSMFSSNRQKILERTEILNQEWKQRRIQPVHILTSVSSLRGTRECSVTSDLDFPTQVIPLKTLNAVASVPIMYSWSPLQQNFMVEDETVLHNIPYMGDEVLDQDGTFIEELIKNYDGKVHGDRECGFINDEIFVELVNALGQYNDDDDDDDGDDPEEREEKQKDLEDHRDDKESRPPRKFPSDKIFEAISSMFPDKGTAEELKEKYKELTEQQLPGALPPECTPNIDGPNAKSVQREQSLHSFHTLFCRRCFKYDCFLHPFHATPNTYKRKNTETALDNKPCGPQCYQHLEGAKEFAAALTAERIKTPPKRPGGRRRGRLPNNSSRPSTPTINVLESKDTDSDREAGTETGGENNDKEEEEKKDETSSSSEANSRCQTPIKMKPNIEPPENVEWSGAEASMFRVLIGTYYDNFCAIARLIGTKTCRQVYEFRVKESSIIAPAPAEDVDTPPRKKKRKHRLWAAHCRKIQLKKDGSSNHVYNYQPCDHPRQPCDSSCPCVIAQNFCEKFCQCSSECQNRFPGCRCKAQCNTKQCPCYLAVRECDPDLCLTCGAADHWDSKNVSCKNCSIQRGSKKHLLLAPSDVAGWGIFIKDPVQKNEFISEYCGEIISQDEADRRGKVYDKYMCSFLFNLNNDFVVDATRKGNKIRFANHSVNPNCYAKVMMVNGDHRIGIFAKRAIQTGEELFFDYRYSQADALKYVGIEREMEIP
EZH2, sequence (O75530 whole entry partner): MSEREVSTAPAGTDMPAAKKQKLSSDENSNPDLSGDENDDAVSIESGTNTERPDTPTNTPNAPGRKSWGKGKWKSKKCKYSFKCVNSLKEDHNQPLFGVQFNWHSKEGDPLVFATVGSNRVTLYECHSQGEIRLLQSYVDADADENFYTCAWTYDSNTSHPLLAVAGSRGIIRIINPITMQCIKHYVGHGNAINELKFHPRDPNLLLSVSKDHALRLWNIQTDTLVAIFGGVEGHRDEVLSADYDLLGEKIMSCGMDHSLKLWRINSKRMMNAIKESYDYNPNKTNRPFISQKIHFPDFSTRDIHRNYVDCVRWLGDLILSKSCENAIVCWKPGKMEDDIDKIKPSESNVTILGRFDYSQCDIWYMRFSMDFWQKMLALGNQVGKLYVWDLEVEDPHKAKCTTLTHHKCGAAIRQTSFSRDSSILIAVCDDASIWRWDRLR
EZH2, sequence (Q15022 whole entry partner): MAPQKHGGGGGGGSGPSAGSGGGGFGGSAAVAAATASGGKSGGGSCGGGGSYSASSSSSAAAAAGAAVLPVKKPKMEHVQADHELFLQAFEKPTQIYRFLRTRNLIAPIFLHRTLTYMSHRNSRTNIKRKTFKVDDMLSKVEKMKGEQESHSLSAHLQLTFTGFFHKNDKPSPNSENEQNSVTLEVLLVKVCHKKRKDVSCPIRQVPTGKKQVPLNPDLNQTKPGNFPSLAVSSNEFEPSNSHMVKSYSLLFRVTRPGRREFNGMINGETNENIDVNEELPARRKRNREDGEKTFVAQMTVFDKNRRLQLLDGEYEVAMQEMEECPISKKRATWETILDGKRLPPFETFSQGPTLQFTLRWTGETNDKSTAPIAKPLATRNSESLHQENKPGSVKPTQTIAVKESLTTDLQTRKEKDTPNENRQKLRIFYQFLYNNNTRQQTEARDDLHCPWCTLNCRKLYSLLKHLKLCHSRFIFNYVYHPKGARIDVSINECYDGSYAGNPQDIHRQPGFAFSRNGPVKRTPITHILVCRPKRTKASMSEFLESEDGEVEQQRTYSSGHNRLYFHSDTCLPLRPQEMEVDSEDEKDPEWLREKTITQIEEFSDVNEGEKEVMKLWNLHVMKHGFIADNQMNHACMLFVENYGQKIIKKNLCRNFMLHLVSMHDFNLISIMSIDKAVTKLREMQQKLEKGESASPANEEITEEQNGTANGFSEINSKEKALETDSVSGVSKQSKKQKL
Procedure: as §1, §2

[1] = test system: Karpas422 human lymphoma xenograft; experiment: Tumor growth inhibition, subcutaneous Karpas422 human lymphoma xenograft model; type: in vivo, Mus Musculus; settings: 160 mg/kg; for TGI (%) / T/C (%) / Tumor Size (mm3) on day 25: Karpas422 xenograft; for TGI (%) / T/C (%): CB-17 SCID mice; for TGI (%) / T/C (%) / Significance: day 25; for T/C (%): treated/control mean tumor volume; for Tumor Size (mm3) on day 25: female CB-17 SCID mice, day 25 after start of treatment, Mean ± SEM; for Significance: one-way ANOVA vs vehicle, tumor volume
Procedure: Number of animals: 50 mice plus spare
Animal supplier: Shanghai SLAC Laboratory Animal Co., LTD.
The Karpas422 tumor cells were maintained in vitro as suspension culture in RPMI1640 medium supplemented with 10% heat inactivated fetal calf serum at 37° C. in an atmosphere of 5% CO2 in air. The tumor cells were routinely subcultured twice weekly. The cells growing in an exponential growth phase were harvested and counted for tumor inoculation.
Each mouse was inoculated subcutaneously at the right flank with the Karpas422 tumor cells (5×10^6) in 0.2 ml of PBS with Matrigel (1:1) for tumor development. Day 23 after tumor inoculation was as day 0 after the start of treatment when the average tumor size reached approximately 300 mm^3. Each group consisted of 10 tumor-bearing mice.
Tumor size was measured three times weekly in two dimensions using a caliper, and the volume was expressed in mm^3 using the formula: V=0.536a×b^2 where a and b are the long and short diameters of the tumor, respectively. The tumor size was then used for calculations of T/C values. The T/C value (in percent) is an indication of antitumor effectiveness; T and C are the mean volumes of the treated and control groups, respectively, on a given day. TGI was calculated for each group using the formula: TGI (%)[1−(Ti−T0)/(Vi−V0)]×100; Ti is the average tumor volume of a treatment group on a given day, T0 is the average tumor volume of the treatment group on the day of treatment start, Vi is the average tumor volume of the vehicle control group on the same day with Ti, and V0 is the average tumor volume of the vehicle group on the day of treatment start.
Experimental Endpoint and Sample Collection
1). Plasma, tumor and muscle in EPZ-6438 group were collected on day 16 after the start of treatment at 6 h after dosing. Plasma, tumor and muscle in vehicle, CPI-524369, CPI-524416 and CPI-591780 groups were collected on day 25 after the start of treatment at 1 h after dosing. 2). All the blood was taken from each animal with EDTA-K2 as anticoagulant. Plasma was divided into two parts. The first part was for PK analysis; the second part was frozen for backup. 3). Tumor was divided into three parts. The first part was snap-frozen for PK; the second part was snap-frozen for PD analysis; the third part was frozen for backup. 4). Muscle was divided into two parts. The first part was snap-frozen for PK; the second part was frozen for backup.
Tumor Growth Inhibition Analysis

[2] = rPRC2, biotinylated oligonucleosomes, read-out: EZH2 IC50
[3] = Y641N EZH2 mutant enzyme, H3K27Me2 oligonucleosomes, read-out: Y641N EZH2 IC50
[4] = EZH2 IC50, rPRC2, biotinylated oligonucleosomes

Y641N EZH2, sequence (Q15910 whole entry Y641N): as the sequence (Q15910 whole entry) above, with Y641N counted along it
Y641N EZH2, sequence (O75530 whole entry partner): as the sequence (O75530 whole entry partner) above
Y641N EZH2, sequence (Q15022 whole entry partner): as the sequence (Q15022 whole entry partner) above

SMILES | IC50 (Y641N EZH2) [µM] | IC50 (EZH2; [2]) [µM] | IC50 (Y641N EZH2; [3]) [µM] | IC50 (EZH2; [4]) [µM] | further results
COc1cc(C)[nH]c(=O)c1CNC(=O)c1c(C)n(C(C)C(C)OC)c2ncccc12 (single isomer, unassigned) [Compound 266, N-((4-methoxy-6-methyl-2-oxo-1,2-dihydropyridin-3-yl)methyl)-1-((2R or 2S, 3R or 3S)-3-methoxybutan-2-yl)-2-methyl-1H-pyrrolo[2,3-b]pyridine-3-carboxamide] | 0.1 to 1 |  |  |  | 
COc1cc(C)[nH]c(=O)c1CNC(=O)c1c(C)n(C(C)C2CCN(S(C)(=O)=O)CC2)c2ccccc12 (single isomer, unassigned) [Compound 336, (R or S)-N-((4-methoxy-6-methyl-2-oxo-1,2-dihydropyridin-3-yl)methyl)-2-methyl-1-(1-(1-(methylsulfonyl)piperidin-4-yl)ethyl)-1H-indole-3-carboxamide] |  | < 0.1 | < 0.1 |  | 
COc1cc(C)[nH]c(=O)c1CNC(=O)c1c(C)n(C(C)C2CCN(C(=O)C(C)(C)O)CC2)c2ccccc12 (single isomer, unassigned) [Compound 337, (R or S)-1-(1-(1-(2-hydroxy-2-methylpropanoyl)piperidin-4-yl)ethyl)-N-((4-methoxy-6-methyl-2-oxo-1,2-dihydropyridin-3-yl)methyl)-2-methyl-1H-indole-3-carboxamide] |  | < 0.1 | < 0.1 |  | 
COc1cc(C)[nH]c(=O)c1CNC(=O)c1c(C)n(C(C)C2CCN(C3COC3)CC2)c2ccccc12 (single isomer, unassigned) [Compound 341, (R or S)-N-((4-methoxy-6-methyl-2-oxo-1,2-dihydropyridin-3-yl)methyl)-2-methyl-1-(1-(1-(oxetan-3-yl)piperidin-4-yl)ethyl)-1H-indole-3-carboxamide] | < 0.1 |  |  | < 0.1 | 
COc1cc(C)[nH]c(=O)c1CNC(=O)c1c(C)n(C(C)C2CCN(C(=O)C(C)C)CC2)c2ccccc12 (single isomer, unassigned) [Compound 342, (R or S)-1-(1-(1-isobutyrylpiperidin-4-yl)ethyl)-N-((4-methoxy-6-methyl-2-oxo-1,2-dihydropyridin-3-yl)methyl)-2-methyl-1H-indole-3-carboxamide] |  | < 0.1 | < 0.1 |  | 
Cc1cc(OC(F)F)c(CNC(=O)c2c(C)n(C(C)C3CCN(S(C)(=O)=O)CC3)c3ccccc23)c(=O)[nH]1 (single isomer, unassigned) [Compound 344, (R or S)-N-((4-(difluoromethoxy)-6-methyl-2-oxo-1,2-dihydropyridin-3-yl)methyl)-2-methyl-1-(1-(1-(methylsulfonyl)piperidin-4-yl)ethyl)-1H-indole-3-carboxamide] |  | < 0.1 | < 0.1 |  | 
COCCN1CCC(C(C)n2c(C)c(C(=O)NCc3c(OC)cc(C)[nH]c3=O)c3ccccc32)CC1 (single isomer, unassigned) [Compound 359, (R or S)-N-((4-methoxy-6-methyl-2-oxo-1,2-dihydropyridin-3-yl)methyl)-1-(1-(1-(2-methoxyethyl)piperidin-4-yl)ethyl)-2-methyl-1H-indole-3-carboxamide] | < 0.1 |  |  | < 0.1 | 
COc1cc(C)[nH]c(=O)c1CNC(=O)c1c(C)n(C(C)C2CCN(CC(F)F)CC2)c2ccccc12 (single isomer, unassigned) [Compound 362, (R or S)-1-(1-(1-(2,2-difluoroethyl)piperidin-4-yl)ethyl)-N-((4-methoxy-6-methyl-2-oxo-1,2-dihydropyridin-3-yl)methyl)-2-methyl-1H-indole-3-carboxamide] |  |  |  |  | TGI (%) [1]: 92.75%; T/C (%) [1]: 22.59%; Tumor Size (mm3) on day 25 [1]: 385 ± 66 mm3; Significance [1]: *** (*** p < 0.001)
COc1cc(C)[nH]c(=O)c1CNC(=O)c1c(C)n(C(C)C2CCN(CC(F)(F)F)CC2)c2ccccc12 (single isomer, unassigned) [Compound 365, (R or S)-N-((4-methoxy-6-methyl-2-oxo-1,2-dihydropyridin-3-yl)methyl)-2-methyl-1-(1-(1-(2,2,2-trifluoroethyl)piperidin-4-yl)ethyl)-1H-indole-3-carboxamide] |  |  |  |  | TGI (%) [1]: 97.25%; T/C (%) [1]: 18.72%; Tumor Size (mm3) on day 25 [1]: 319 ± 67 mm3; Significance [1]: *** (*** p < 0.001)
CCc1cc(C)[nH]c(=O)c1CNC(=O)c1c(C)n(C(C)C2CCN(C)CC2)c2ccccc12 (single isomer, unassigned) [Compound 366, (R or S)-N-((4-ethyl-6-methyl-2-oxo-1,2-dihydropyridin-3-yl)methyl)-2-methyl-1-(1-(1-methylpiperidin-4-yl)ethyl)-1H-indole-3-carboxamide] | < 0.1 |  |  | < 0.1 | 
Cc1cc(C)c(CNC(=O)c2c(C)n(C(C)C3CCN(C4COC4)CC3)c3ccccc23)c(=O)[nH]1 (single isomer, unassigned) [Compound 375, (R or S)-N-((4,6-dimethyl-2-oxo-1,2-dihydropyridin-3-yl)methyl)-2-methyl-1-(1-(1-(oxetan-3-yl)piperidin-4-yl)ethyl)-1H-indole-3-carboxamide] | < 0.1 |  |  | < 0.1 | 
